Data: patent US20240189305A1, “THERAPEUTIC AGENT FOR CORONAVIRUS INFECTION” (FUJIFILM TOYAMA CHEMICAL CO., LTD., priority 2021, published 2024)

Tested on: SARS-CoV-2
Test: Test example 1: placebo-controlled, stratified-randomized, multicenter, double-blind phase 3 study in COVID-19 patients with a risk factor for disease progression at an early stage after onset
Assay type: in vivo
Conditions: patients 50 years or older, onset within 72 hours; oral 1,800 mg twice/day for 1 day + 800 mg twice/day for 9 days

SMILES: NC(=O)c1nc(F)cnc1O [Compound A, 6-fluoro-3-hydroxy-2-pyrazinecarboxamide]
- therapeutic effect by primary endpoint (proportion of patients with disease progression up to Day 28) and/or secondary endpoints versus placebo: therapeutic effect is higher in the Compound A group than in the placebo group
